Reference: patent publication US6335443B1, “Chemical synthesis of exochelins” (Keystone Biomedical, Inc., priority 1998, dated 2002)
Values joined by “and” are separate entries in the source; they are usually repeats but may differ in a detail not shown here. Equal entries are not always repeated.

Tests used:
[1] = Capacity to chelate iron from ferric ammonium citrate solution (reverse-phase HPLC, 450 nm); type: binding
Description: A. Capacity to Chelate Iron. To determine if the synthetic desferri-Exochelin 772SM(R) could chelate iron, as does the native form, the Exochelin was dissolved in 0.1% TFA containing ferric ammonium citrate at a 10-fold molar excess of iron to Exochelin. The solution was then loaded on a Bondapak Phenyl 125 Å 10 μm (3.9×300 mm) HPLC column and the Exochelin was subjected to reverse-phase HPLC (High Pressure Liquid Chromatography) on a Rainin (Woburn, Mass.) HPXL system. The Exochelin was eluted with a 0-100% gradient of a buffer consisting of 0.1% TFA and 50% acetonitrile at a flow rate of 1 ml/min. The ferri-exochelins were monitored at 220-nm and 450-nm absorbance. The mass of ferri-exochelin was assayed by measuring the area under the peak at 450-nm and applying a conversion factor derived from assaying known amounts of ferri-exochelin 772SM(R).
A. Capacity to Chelate Iron. The capacity of synthetic Exochelin 772SM(S) to chelate iron from a solution containing a 10-fold molar excess of ferric iron (ferric ammonium citrate) was assayed as described above.

[2] = tested on: ferri-Exochelin 758SM; assay: Capacity to remove iron from Ferri-Exochelin 758SM in the same vial (772SM(R) vs 772SM(S)); type: binding; settings: Table 3
Description: To further assess the relative affinities of the stereoisomers desferri-Exochelin 772SM(R) and 772SM(S) for iron, their capacity to remove iron from a different exochelin species in the same vial were compared.
In the experiment,15.6 μg of 1.1% iron-saturated synthetic Exochelin 772SM(R) and 17.4 μg of 1.0% iron-saturated synthetic Exochelin 772SM(S) was mixed with 13.5 μg of 100% iron-saturated native Exochelin 758SM.

[3] = biological target: T1, 40% iron-saturated human transferrin (Homo sapiens, UniProt P02787); assay: Capacity to remove iron from 40% iron-saturated human transferrin; type: biochemical; settings: Fe3+:desferri-Exochelin 10:1, PBS pH 7.4
Description: (§1) A. 40% Iron-Saturated Human Transferrin. To assess the capacity of the 3 different desferri-Exochelins to remove iron from 40% iron-saturated human transferrin, each of them was incubated for 1, 3, and 24 hours with 40% iron-saturated transferrin such that the ratio of Fe^3+: desferri-Exochelin equaled 10:1. The incubation was carried out in PBS, pH 7.4. Afterwards, the Exochelin and transferrin were separated from each other by centrifugation through a 10,000 dalton cut-off filter. The transferrin (mass 76,000 daltons) was completely excluded by this filter whereas 85% of the Exochelin (mass<1,000) was recovered in the filtrate. To determine the total amount of exochelin recovered, the exochelin in the filtrate was saturated with a 20:1 molar excess of ferric ammonium citrate and subjected to reverse-phase HPLC as described above. To determine the amount of iron-saturated Exochelin in the filtrate at each time point, the filtrate was subjected to reverse-phase HPLC without the addition of iron. The % iron-saturation was calculated as follows: [formula]

[4] = biological target: T1, 40% iron-saturated human transferrin; assay: as above; type: biochemical; settings: Fe3+:desferri-Exochelin 10:1, PBS pH 7.4, listed as Synthetic Desferri-Exochelin 772SM(R)
[5] = biological target: holo-transferrin (92% iron-saturated human transferrin) (Homo sapiens, UniProt P02787); assay: Capacity to remove iron from holo-transferrin (92% iron-saturated human transferrin); type: biochemical; settings: Fe3+:desferri-Exochelin 10:1
Description: as §1
B. Holo-Transferrin (92% Iron-Saturated Human Transferrin). To assess the capacity of the 3 different desferri-Exochelins to remove iron from holo-transferrin (92% iron-saturated human transferring, each of them was incubated for 1, 3, and 24 h with 92% iron-saturated transferrin such that the ratio of Fe^3+: desferri-Exochelin equaled 10:1, as in the aforementioned study with 40% iron-saturated transferrin. The % iron-saturation of the Exochelins was assayed as above.

[6] = tested on: ferri-Exochelin 758SM; assay: Capacity to remove iron from a different Exochelin species (Ferri-Exochelin 758SM); type: binding
Description: C. Capacity to Remove Iron from a Different Exochelin Species. To assess the affinity of the synthetic desferri-Exochelin 772SM(R) for iron, its capacity to remove iron from a different Exochelin species, ferri-Exochelin 758SM, was evaluated. The capacity of synthetic and native desferri-Exochelin 772SM(R) to remove iron from ferri-Exochelin 758SM was also evaluated and compared. Either native or synthetic desferri-Exochelin 772SM(R) were independently mixed with ferri-Exochelin 758SM. The amount of iron acquired in 1 hour by the desferri-Exochelins was assayed by subjecting the Exochelin to reverse-phase HPLC on a phenyl column, as described above, and the area under the 450 nm absorbance peak was measured. The amount of iron-Exochelin was then calculated using a conversion factor derived from assaying known amounts of ferri-Exochelin 772SM(R).
C. Capacity to Remove Iron from a Different Exochelin Species. To assess the affinity of the synthetic desferri-Exochelin 772SM(S) for iron, its capacity to remove iron from a different exochelin species, ferri-Exochelin 758SM was evaluated. The capacity of synthetic desferri-Exochelin 772SM(S) and native desferri-Exochelin 772SM(R) to remove iron from ferri-Exochelin 758SM was also evaluated and compared. Either synthetic desferri-Exochelin 772SM(S) or native desferri-Exochelin 772SM(R) was mixed with ferri-Exochelin 758SM. The amount of iron acquired by the desferri-exochelins after 1 hour was assayed by subjecting the molecule to reverse-phase HPLC on a phenyl column, as described above, and the area under the 450 nm absorbance peak was measured. The amount of iron-exochelin was then calculated using a conversion factor derived from assaying known amounts of ferri-Exochelin 772SM(R) and ferri-Exochelin 772SM(S).

[7] = listed as synthetic desferri-exochelin 772SM(R)

T1 sequence (P02787 20-698): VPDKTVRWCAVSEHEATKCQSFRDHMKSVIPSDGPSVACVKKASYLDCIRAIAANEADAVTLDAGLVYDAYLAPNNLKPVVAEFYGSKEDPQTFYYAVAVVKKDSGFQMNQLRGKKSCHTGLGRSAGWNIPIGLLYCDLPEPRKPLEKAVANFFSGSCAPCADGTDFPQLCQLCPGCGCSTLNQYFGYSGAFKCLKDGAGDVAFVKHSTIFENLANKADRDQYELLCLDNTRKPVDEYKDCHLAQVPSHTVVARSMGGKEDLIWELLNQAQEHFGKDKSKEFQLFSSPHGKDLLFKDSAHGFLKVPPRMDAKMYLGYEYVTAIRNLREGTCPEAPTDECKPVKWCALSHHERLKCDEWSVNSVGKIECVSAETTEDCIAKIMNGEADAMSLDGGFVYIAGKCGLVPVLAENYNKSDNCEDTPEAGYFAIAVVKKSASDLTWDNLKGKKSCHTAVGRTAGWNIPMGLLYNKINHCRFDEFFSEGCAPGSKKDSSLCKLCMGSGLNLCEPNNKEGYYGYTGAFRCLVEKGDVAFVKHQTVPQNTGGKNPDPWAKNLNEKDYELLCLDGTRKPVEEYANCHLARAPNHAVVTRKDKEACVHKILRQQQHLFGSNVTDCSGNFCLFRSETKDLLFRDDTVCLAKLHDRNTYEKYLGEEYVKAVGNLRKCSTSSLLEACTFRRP
holo-transferrin (92% iron-saturated human transferrin), sequence (P02787 20-698): as above

## COC(=O)CCCCCC(=O)N(O)CCCCC(NC(=O)C1COC(c2ccccc2O)=N1)C(=O)OC(C)CC(=O)NC1CCCCN(O)C1=O [Synthetic 772SM(R), Exochelin 772SM(R)]
[1]; absence of ferric ammonium citrate, listed as synthetic desferri-Exochelin 772SM(R)
  ferri-exochelin eluted from the HPLC column, % of the Exochelin added: 1.08%
[1]; ferric iron in solution, listed as synthetic desferri-exochelin 772SM(R)
  capacity to chelate iron (in words): rapidly chelates ferric iron in solution
[1]; presence of ferric ammonium citrate, 10-fold molar excess of iron, listed as synthetic desferri-Exochelin 772SM(R)
  exochelin eluted from the column in the ferri form: 100%
[2]; 0 hour, 772SM(R), 772SM(S) and 758SM in the same vial
  % Iron-Saturation 0 hour: 1.1%
[2]; 0 hour, same vial, assuming comparable affinities
  % of Calculated Iron-Saturation at Equilibrium 0 hour: 3.7%
[2]; 772SM(R), 772SM(S) and 758SM in the same vial
  % Iron-Saturation 1 hour: 28.2%
[2]; 772SM(R), 772SM(S) and 758SM in the same vial, listed as synthetic Exochelin 772SM(R)
  % Iron-Saturation 1 hour: 28.2%
[2]; same vial, assuming comparable affinities
  % of Calculated Iron-Saturation at Equilibrium 1 hour: 94.3%
[2]; same vial, assuming comparable affinities, listed as synthetic Exochelin 772SM(R)
  % of Calculated Iron-Saturation at Equilibrium 1 hour: 94.3%
[3]; 1 h, listed as Synthetic Desferri-Exochelin 772SM(R)
  Iron-Saturation 1 h: 6.8%
[3]; 3 h, listed as Synthetic Desferri-Exochelin 772SM(R)
  Iron-Saturation 3 h: 12.8%
[3]; listed as Synthetic Desferri-Exochelin 772SM(R)
  Iron-Saturation 24 h: 39.2%
[3]; [7]
  Iron-Saturation 24 h: 39.2%
[4]
  Iron-Saturation 0 h: 1.1%
[5]; 0 h, listed as Synthetic Desferri-Exochelin 7728M(R)
  Iron-Saturation 0 h: 1.1%
[5]; 1 h, listed as Synthetic Desferri-Exochelin 7728M(R)
  Iron-Saturation 1 h: 13.6%
[5]; 3 h, listed as Synthetic Desferri-Exochelin 7728M(R)
  Iron-Saturation 3 h: 31.5%
[5]; listed as Synthetic Desferri-Exochelin 7728M(R)
  Iron-Saturation 24 h: 60.0%
[5]; [7]
  Iron-Saturation 24 h: 60.0%
[6]; Table 1, 0 h, assuming comparable affinities for iron, 17.3 µg 772SM(R), Experiment II
  % of Calculated Iron-Saturation at Equilibrium 0 h: 2.0%
[6]; Table 1, 0 h, assuming comparable affinities for iron, 26.1 µg 772SM(R), Experiment I
  % of Calculated Iron-Saturation at Equilibrium 0 h: 2.7%
[6]; Table 1, 0 h, mixed with ferri-Exochelin 758SM
  % Iron-Saturation 0 h: 1.1%
[6]; Table 1, assuming comparable affinities for iron, 17.3 µg 772SM(R), Experiment II
  % of Calculated Iron-Saturation at Equilibrium 1 h: 90.2%
[6]; Table 1, assuming comparable affinities for iron, 26.1 µg 772SM(R), Experiment I
  % of Calculated Iron-Saturation at Equilibrium 1 h: 81.3%
[6]; Table 1, assuming comparable affinities for iron, listed as synthetic Exochelin 772SM(R)
  % of Calculated Iron-Saturation at Equilibrium 1 h: 81.3% and 90.2%
[6]; Table 1, mixed with ferri-Exochelin 758SM, 17.3 µg 772SM(R), Experiment II
  % Iron-Saturation 1 h: 48.6%
[6]; Table 1, mixed with ferri-Exochelin 758SM, 26.1 µg 772SM(R), Experiment I
  % Iron-Saturation 1 h: 33.5%
[6]; Table 1, mixed with ferri-Exochelin 758SM, listed as synthetic Exochelin 772SM(R)
  % Iron-Saturation 1 h: 33.5% and 48.6%
[6]; Table 2, 0 hour, assuming comparable affinities for iron
  % of Calculated Iron-Saturation at Equilibrium 0 hour: 2.3%
[6]; Table 2, 0 hour, mixed with ferri-Exochelin 758SM
  % Iron-Saturation 0 hour: 1.1%
[6]; Table 2, assuming comparable affinities for iron
  % of Calculated Iron-Saturation at Equilibrium 1 hour: 90.7%
[6]; Table 2, assuming comparable affinities for iron, listed as synthetic Exochelin 772SM(R)
  % of Calculated Iron-Saturation at Equilibrium 1 hour: 90.7%
[6]; Table 2, mixed with ferri-Exochelin 758SM
  % Iron-Saturation 1 hour: 42.9%
[6]; Table 2, mixed with ferri-Exochelin 758SM, listed as synthetic Exochelin 772SM(R)
  % Iron-Saturation 1 hour: 42.9%
[6]; removal of iron from ferri-Exochelin 758SM within 1 h
  affinity for iron (in words): very high affinity for iron
